# Assay results reported in a melting point compilation (Tetko et al.; mined from patent text by program, amines drawn as free bases though some values may be those of a salt).
row,melting point [°C],Structure (SMILES)
1,169 to 170,CCOC(=O)c1cc2c(=O)n(C(C)C)c3ccccc3n2c1
2,117 to 118,CC(=O)c1ccc(OCc2cccc([N+](=O)[O-])c2)cc1O
3,153 to 155,CN1C(=O)C(C(=O)Nc2ccc(F)cc2)S(=O)(=O)c2cc(F)ccc21 (stereo unspecified)
4,95.5 to 96.5,CC(C)n1nc(C#Cc2cccc(F)c2)ccc1=O
5,176 to 177,CC(C)C1C(C=C(Br)Br)=CC=CN1C12CC3CC(CC(C3)C1)C2 (stereo unspecified)
6,222 to 223,O=C(C=Cc1ccc(CNC2CC2)cc1)Nc1ccc(-c2ccc(Cl)cc2)cc1
7,150,CN(C)c1nc(NCc2ccc(NC(=O)c3ccc(F)cc3)cc2)c2ccc(C#N)cc2n1
8,115 to 116,CCOc1cc2cc(COC(C)=O)c(COC(C)=O)c(-c3ccncc3)c2cc1OCC
9,219,CCOC(=O)c1ncn2c(C(F)F)cc(-c3ccc(C(F)(F)F)cc3)nc12
10,146 to 147,COc1cc(C(=O)CS(=O)(=O)c2ccccc2)ccc1Cc1cn(C(C)C(=O)N(C)C)c2ccc(C(=O)NCC3CCCC3)cc12 (stereo unspecified)
11,> 250,NS(=O)(=O)c1cccc(-c2cn(-c3cc(-c4ccc(C(F)(F)F)cc4)cc(C(F)(F)F)n3)cn2)c1
12,176 to 177,CS(=O)(=O)c1ccc(Oc2ccc([N+](=O)[O-])cc2[N+](=O)[O-])cc1
13,185 to 189,Cc1ccc(-c2cccc(OC3SCC(O)C(O)C3O)c2)nc1 (stereo unspecified)
14,186 to 188,COC(=O)c1cccc2nc(SCCN3CCN(CCNC(=O)Nc4c(C(C)C)cccc4C(C)C)CC3)oc12
15,199 to 200,O=c1[nH]c2ccccc2c(=O)c(Cc2ccccc2)c1O
16,127 to 129,CC(C)OC1CC(O)C(=O)N1S(=O)(=O)c1ccccc1 (stereo unspecified)
17,66 to 67,CCOC(=O)CCc1c(OC)cncc1OC
18,216 to 217,O=C(Nc1ccc2c(c1)CCNO2)c1cc2cc(F)ccc2n1Cc1cccc(F)c1
19,191 to 193,Cc1ccc(-c2c(NS(=O)(=O)c3ccc(C(C)(C)C)cc3)ncnc2OCCOc2ncc(C=O)cn2)cc1
20,133,O=C1C(=O)N(c2ccc(Cl)cc2[N+](=O)[O-])C(=O)N1c1cccc(Cl)c1
21,94.5,CCOC(=O)c1cnc2cc(Cl)ccc2c1N=[N+]=[N-]
22,208,O=Cc1c(Cl)ccc2cc(Cl)cnc12

row,melting point [°C],Structure (SMILES)
1,121 to 122,COc1c(C)c(C)c(OC)c(CO)c1C
2,180,CCCCCC(C)N(CCCC)c1ccc(C2=C(C#N)C(=C(C#N)C#N)NC2=O)cc1 (stereo unspecified)
3,92 to 95,FC(F)(F)c1cc(Br)cc(C(F)(F)F)n1
4,285 to 290,Fc1ccc(-c2[nH]nc(Br)c2-c2ccncc2)cc1F
5,> 250,O=C(O)c1cnc2c(NC(=O)c3c(Cl)cccc3Cl)cccc2c1
6,73.5 to 74.5,CC1(C)OC(=O)C2=C(CCCCCC2)O1
7,149 to 151,CC(C)[C@H](NC(=O)OC(C)(C)C)C(=O)N[C@H](CCC(=O)OCc1ccccc1)C(N)=O
8,184 to 187,N=C(N)CSc1nnc(S)s1
9,133 to 135,CN1CCC(O)(c2cc(F)c(Br)cc2F)CC1
10,126 to 128,COc1cc(OC)nc(C(=O)c2nccc(-c3ccccc3)c2C(=O)n2ccnc2)c1
11,137 to 140,COc1ccc(NC(=O)c2ccc(N)cc2NC(=O)c2ccc(C(C)(C)C)cc2)cc1
12,90 to 92,CCC(=O)N(C(=O)CC)c1c(OCc2ccccc2)cc(Br)cc1[N+](=O)[O-]
13,138 to 140,Cc1cn(C)c2c(OCc3ccccc3)cc3c(c12)[C@H](CO)CN3C(=O)OC(C)(C)C
14,> 260,COc1cc(-c2cccc(Cl)c2)c2cc(C(O)(c3ccc(Cl)cc3)c3nnc(S)n3C)ccc2n1 (stereo unspecified)
15,219 to 220,O=C(O)[C@@H]1CN[C@H](C(=O)O)C1
16,52.5 to 54,NCc1ccc(F)cc1C(F)(F)C(F)(F)c1ccccc1
17,280,Nc1nc(-n2cc(C(=O)O)c(=O)c3c(N)c(F)c(F)c(Cl)c32)c(F)cc1F
18,102 to 104,[N-]=[N+]=Nc1cc(C2COCOC2)c2occc2c1
19,62 to 68,CC(=O)Nc1ccc(C(=O)OCC=CC(C)Oc2ccc(Oc3cnc4cc(Cl)ccc4n3)cc2)cc1 (stereo unspecified)
20,167,O=C(Nc1ccc(SC(F)(F)F)cc1)c1ccc2c(c1O)CCCC2
21,190 to 191,CCCCC[C@H]1CC[C@H](c2ncc(O)cn2)CC1
22,112 to 117,CCN(CC)S(=O)(=O)c1ccc(C=CC(C)(O)C(F)(F)F)cc1 (stereo unspecified)

row,melting point [°C],Structure (SMILES)
1,75 to 77,COc1cc(NC(C)CCCN2C(=O)c3ccccc3C2=O)c2ncccc2c1Oc1ccc(Cl)cc1 (stereo unspecified)
2,109 to 110,Nc1cccc(Nc2nccc(Sc3cccc(Br)c3)n2)c1
3,182,COC(=O)c1cc(=O)n(C)c2ccc(C(=O)c3ccc(Cl)cc3)cc12
4,150 to 151,CCCCCCCCCCCCCc1c[nH]c(C(=O)O)c1
5,139 to 141,CC(C)(C)OC(=O)NC1Cc2ccccc2N(c2ccccc2)C1 (stereo unspecified)
6,104 to 106,CCOC(=O)/C=C/c1ccc(O)c(Cl)c1
7,130 to 132,CCOC(=O)C(C#N)C1(C#N)C(=O)N(Cc2ccc(F)cc2)c2c(C)cccc21 (stereo unspecified)
8,137 to 139,CCCCCOC(=O)c1cc(O)c2c(n1)c(C)cc1c(O)cc(C(=O)OCCCCC)nc12
9,97 to 99,Cc1ccc(C2CCN(C(=O)CCC(=O)c3ccc4c(c3)CN(C)CC4)CC2)cc1
10,131 to 132,CC12CC3CC(C)(C1)CC(C(=O)NCCc1cccs1)(C3)C2
11,160 to 162,O=C(O)Cc1cccc(C(=O)c2ccccc2)c1[N+](=O)[O-]
12,260 to 264,Cc1ccc(Nc2nc(-c3ccccc3)cs2)nc1
13,111 to 123,CCCCCCC(C(=O)OCC)S(=O)(=O)c1ccc(C)cc1 (stereo unspecified)
14,39.4,C#CCSc1nc(-c2ccccc2)no1
15,157 to 160,CCCc1nc(N)nc(N)c1N1CCN(Cc2ccccc2)CC1
16,> 290,Cc1[nH]c(=O)c(C#N)c2c1CC(C)CC2 (stereo unspecified)
17,292 to 293,Brc1ccc2[nH]c3cnc(-c4ccon4)cc3c2c1
18,235 to 236,O=C(Cc1c[nH]c2ccccc12)Nc1ccccc1C(=O)Nc1ccccc1
19,112 to 113,OCC1CCn2c(nc3ccccc32)S1 (stereo unspecified)
20,90 to 93,O=C(Nc1ccc(OCCN2CCOCC2)c2ccccc12)c1cccc(Br)c1
21,121 to 123,CN=C(NS(=O)(=O)c1ccc(Cl)cc1)SC
22,125 to 127,C[Si](C)(Cc1ccc(N(c2ccccc2)c2ccccc2)cc1)Cc1ccc(N(c2ccccc2)c2ccccc2)cc1

row,Structure (SMILES),melting point [°C]
1,CC(=O)SC(C)CNC(=O)c1cc(Cl)cc(C)c1NC(=O)c1cc(C(F)(F)F)nn1-c1ncccc1Cl (stereo unspecified),137 to 139
2,CCCCCCCCCCC[C@]1(C)OO[C@@H]2C[C@H]1CC(=O)[C@@H]2C,42
3,CN(C)c1nn(-c2cc(F)c(C#N)cc2F)c(=O)n1N,154 to 155
4,COc1ccc(-c2cc(=O)c3c(OC)cc(OC)c(C4=CCN(C)CC4)c3o2)c(OC)c1OC,209 to 210
5,CC(=NO)c1nn(C)c2cc(OCC3CC3(Cl)Cl)c(F)cc12 (stereo unspecified),150 to 152
